Test results published in patent publication US12692274B2, “Tetrahydroisoquinoline derivatives for the treatment of red blood disorders and inflammatory diseases” (Sanofi, priority 2020, dated 2026).
“And” between values parts separate entries of the source, which are not always exact repeats. Equal values may be shown once.

Columns and labels:
[1] = test system: NQO1 activation in BEAS-2B cells; experiment: BEAS-2B cellular MTT assay of NQO1 activation, 0.3% HSA; type: cell-based
Method in brief: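 MTT read-out in BEAS-2B cells grown in BEBM with SingleQuots, no GA-1000, kept below 70% confluence; plates coated with collagen, with 0.3% or 0% HSA medium, seeded to 95-100% confluency at 48 h, 37 °C, 5% CO2.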

[2] = test system: NQO1 activation in BEAS-2B cells; experiment: BEAS-2B cellular MTT assay of NQO1 activation, 0% HSA; type: cell-based
Method in brief: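 For the 0% HSA condition, cells were seeded into collagen plates in HSA-free medium. Culture was BEAS-2B in BEBM plus BEGM SingleQuots lacking GA-1000, held under 70% confluence, at a seeding density reaching 95-100% confluence by 48 h.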

[3] = molecular target: HIS-Keap1 full length / Biotin-Nrf2 (16-mer) (Homo sapiens, UniProt Q14145); experiment: biochemical
[4] = Homo sapiens, BEAS+, read-out: BEAS+ EC50
[5] = Homo sapiens, serum free, read-out: BEAS EC50 (nM) serum free
[6] = serum free, read-out: BEAS EC50 (nM) serum free
[7] = BEAS+ W, read-out: BEAS+ W EC50
[8] = Homo sapiens, BEAS+ W, read-out: BEAS+ W EC50
[9] = Homo sapiens, Serum Free W, read-out: BEAS EC50 (nM) Serum Free W
[10] = Serum Free W, read-out: BEAS EC50 (nM) Serum Free W

Chain of HIS-Keap1 full length / Biotin-Nrf2 (16-mer) (Q14145 whole entry): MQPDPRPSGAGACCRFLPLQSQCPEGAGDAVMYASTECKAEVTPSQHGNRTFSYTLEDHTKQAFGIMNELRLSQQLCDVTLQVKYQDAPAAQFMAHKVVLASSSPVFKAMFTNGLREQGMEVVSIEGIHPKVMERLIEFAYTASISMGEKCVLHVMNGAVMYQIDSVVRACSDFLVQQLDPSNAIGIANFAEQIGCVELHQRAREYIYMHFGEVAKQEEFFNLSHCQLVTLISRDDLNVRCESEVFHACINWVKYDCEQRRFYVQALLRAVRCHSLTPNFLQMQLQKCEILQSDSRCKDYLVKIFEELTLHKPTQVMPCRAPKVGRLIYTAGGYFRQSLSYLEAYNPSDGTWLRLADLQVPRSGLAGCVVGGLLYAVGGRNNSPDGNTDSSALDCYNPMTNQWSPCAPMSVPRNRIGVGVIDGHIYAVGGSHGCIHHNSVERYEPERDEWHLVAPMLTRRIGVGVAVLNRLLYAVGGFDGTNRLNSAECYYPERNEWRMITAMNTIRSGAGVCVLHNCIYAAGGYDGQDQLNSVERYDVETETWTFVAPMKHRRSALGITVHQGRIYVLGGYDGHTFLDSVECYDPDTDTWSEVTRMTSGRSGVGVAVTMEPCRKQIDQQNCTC

Structure (SMILES) | EC50 ([1]; BEAS+, read-out: BEAS+ EC50) | EC50 [1, 4] [nM] | EC50 [2, 5] [nM] | IC50 [3] | EC50 [2, 6] | EC50 [1, 7] | EC50 [1, 8] [nM] | EC50 [2, 9] [nM] | EC50 [2, 10] [nM]
Cc1c2cnc3c1nnn3CCCCCc1cc(F)c(c(F)c1)C(=O)N1CCc3ccc(cc3C1)[C@H]2CC(=O)O [Compound 139] | 0.3 nM | 0.2 | 0.2 | 0.1 nM | – | – | – | – | –
Cc1c2cnc3c1nnn3CCCCCCc1ccc(cc1)C(=O)N1CCc3ccc(cc3C1)[C@H]2CC(=O)O [Compound 140] | 27.3 nM | 30.4 | 11.6 | 0.3 nM and 0.5 nM | 8.8 nM | – | – | – | –
Cc1c2ccc3c1nnn3CCCCCCc1ccc(c(F)c1)C(=O)N1CCc3ccc(cc3C1)[C@H]2[C@@H](C)C(=O)O [Compound 141] | – | – | – | > 990 nM | – | 7040 nM | 7200 | > 1000 | –
Cc1c2cnc3c1nnn3CCCCCc1ccc3c(c1)cc(n3C)C(=O)N1CCc3ccc(cc3C1)C2CC(=O)O (centres unmarked) [Compound 143] | – | – | – | 0.7 nM | – | 10.6 nM | 10.3 | 2.2 | 2.6
O=C(O)CC1c2ccc3c(c2)CN(CC3)C(=O)c2ccc(cc2F)CCCCCn2nnc3c(Cl)c1ccc32 (centres unmarked) [Compound 145] | 0.7 nM | 0.4 | 0.6 | 0.1 nM | 0.5 nM | – | – | – | –
Cc1cc2ccc1C(=O)N1CCc3ccc(cc3C1)C(CC(=O)O)c1ccc(nc1C)OCCCCC2 (centres unmarked) [Compound 149] | 89.3 nM | 103 | 74.3 | 9.4 nM and 7.4 nM | 67.8 nM | – | – | – | –
Cc1nc2ccc1C(CC(=O)O)c1ccc3c(c1)CN(CC3)C(=O)c1ccc(cc1)CCCCCO2 (centres unmarked) [Compound 150] | 188 nM | 164 | 103 | 113 nM and 106 nM | 147 nM | – | – | – | –
Cc1cc2ccc1C(=O)N1CCc3ccc(cc3C1)C(CC(=O)O)c1cnc(cc1C)OCCCCO2 (centres unmarked) [Compound 151] | 121 nM | 230 | 216 | 2.4 nM and 2.7 nM | 170 nM | – | – | – | –
Cc1cc2ccc1C(=O)N1CCc3ccc(cc3C1)C(CC(=O)O)c1ccc(nc1)OCCCCC2 (centres unmarked) [Compound 154] | 35.8 nM | 37.8 | 16.6 | 3.3 nM and 3.5 nM | 13.6 nM | – | – | – | –
Cc1c2ccc3c1nnn3CCCCCCOc1ccc(cc1)C(=O)N1CCc3ccc(cc3C1)[C@H]2[C@@H](C)C(=O)O [Compound 155] | – | > 10000 | > 10000 | 734 nM and 514 nM | – | – | – | – | –
Cc1cc2ncc1C(CC(=O)O)c1ccc3c(c1)CN(CC3)C(=O)c1ccc(cc1)CCCCCO2 (centres unmarked) [Compound 157] | 8.9 nM | 9.2 | 3.2 | 3.8 nM and 4 nM | 2.1 nM | – | – | – | –
Cc1c2ccc3c1nnn3CCCCCCOc1ccc(cc1)C(=O)N1CCc3ccc(cc3C1)[C@H]2[C@H](C)C(=O)O [Compound 159] | 480 nM | 461 | 113 | 6.9 nM and 7.2 nM | 122 nM | – | – | – | –
Cc1cc2ncc1C(CC(=O)O)c1ccc3c(c1)CN(CC3)C(=O)c1c(F)cc(cc1F)CCCCCO2 (centres unmarked) [Compound 161] | 6 nM and 7.5 nM and 5.2 nM | 7.8 | 1.4 | 2.5 nM and 2.3 nM and 1 nM (2×) | 0.7 nM and 1.1 nM | – | – | – | –
C[C@H](C(=O)O)[C@@H]1c2ccc(nc2)OCCCCCc2cc(F)c(c(F)c2)C(=O)N2CCc3ccc1cc3C2 [Compound 162] | – | 0.8 | 0.6 | 2.1 nM and 2 nM | – | – | – | – | –
Cc1cc2ccc1C(=O)N1CCc3ccc(cc3C1)C(CC(=O)O)c1cnc(cc1C)OCCCCC2 (centres unmarked) [Compound 163] | 9.3 nM | 10 | 2.6 | 2.4 nM | 3.3 nM | – | – | – | –
C[C@@H](C(=O)O)[C@@H]1c2ccc(nc2)OCCCCCc2cc(F)c(c(F)c2)C(=O)N2CCc3ccc1cc3C2 [Compound 164] | 34 nM | 32.6 | 16 | 51.2 nM and 59.3 nM | 20.3 nM | – | – | – | –
COc1cc2ccc1CCCCCn1nnc3c(C)c(cnc31)C(CC(=O)O)c1ccc3c(c1)CN(CC3)C2=O (centres unmarked) [Compound 165] | 21.1 nM | 26 | 11.7 | 1.7 nM and 1.6 nM | 13.3 nM | – | – | – | –
Cc1c2ccc3c1nnn3CCCCCCc1ccc(c(F)c1)C(=O)N1CCc3ccc(cc3C1)[C@H]2[C@H](C)C(=O)O [Compound 166] | – | – | – | 0.7 nM and 0.6 nM | – | 2.7 nM and 2.9 nM and 4.2 nM | 2.2 | 1.1 | –
Cc1c2ccc3c1nnn3CCCCCCc1ccc(c(F)c1)C(=O)N1CCc3ccc(cc3C1)[C@@H]2[C@@H](C)C(=O)O [Compound 167] | – | – | – | 12.3 nM and 14.1 nM | – | 133 nM | 103 | 34.7 | 36.6
Cc1c2cnc3c1nnn3CCCCCc1cc(F)c(c(F)c1)C(=O)N1CCc3ccc(cc3C1)C2CC(=O)O (centres unmarked) [Compound 168] | 3.4 nM | 3.7 | 1.3 | 2.2 nM | 1.2 nM | – | – | – | –
Cc1cc2ncc1C(CC(=O)O)c1ccc3c(c1)CN(CC3)C(=O)c1ccc(cc1)OCCCCO2 (centres unmarked) [Compound 169] | 175 nM | 155 | 84.4 | 68.9 nM and 66.2 nM | 55.9 nM | – | – | – | –
Cc1cc2ccc1C(=O)N1CCc3ccc(cc3C1)C(CC(=O)O)c1cnc3c(nnn3CCCCCC2)c1C (centres unmarked) [Compound 170] | 54.3 nM | 50.1 | 28.3 | 6.3 nM and 6.5 nM | 20.4 nM | – | – | – | –
Cc1cc2ccc1C(=O)N1CCc3ccc(cc3C1)C(CC(=O)O)c1ccc3c(nnn3CCCCCC2)c1Cl (centres unmarked) [Compound 171] | 5.4 nM | 8.3 | 1 | 2.5 nM | 1.6 nM | – | – | – | –
O=C(O)C[C@H]1c2ccc(nc2)OCCCCCc2ccc(cc2)C(=O)N2CCc3ccc1cc3C2 [Compound 172] | 263 nM | 188 | 79.2 | 216 nM and 227 nM | 73 nM | – | – | – | –
O=C(O)C[C@@H]1c2ccc(nc2)OCCCCCc2ccc(cc2)C(=O)N2CCc3ccc1cc3C2 [Compound 173] | 13.1 nM | 12.8 | 3.7 | 12.5 nM and 12.4 nM | 4.3 nM | – | – | – | –
Cn1c2cc3cc(cnc31)CCCCCn1nnc3c(Cl)c(ccc31)C(CC(=O)O)c1ccc3c(c1)CN(CC3)C2=O (centres unmarked) [Compound 174] | 15.5 nM | 29.4 | 5.8 | 2 nM and 2.1 nM | 7.3 nM | – | – | – | –
Cc1c2ccc3c1nnn3CCCCCCc1ccc(cc1)C(=O)N1CCc3ccc(cc3C1)[C@@H]2[C@H](C)C(=O)O [Compound 175] | 125 nM | 104 | 53.3 | 10.4 nM and 10.3 nM | 53.7 nM | – | – | – | –
Cc1cc2ccc1C(=O)N1CCc3ccc(cc3C1)C(CC(=O)O)c1ccc(nc1C)OCCCCO2 (centres unmarked) [Compound 178] | 933 nM | 1410 | 1160 | 113 nM and 105 nM | 1140 nM | – | – | – | –
Cc1c2ccc3c1nnn3CCCCCCOc1ccc(cc1)C(=O)N1CCc3ccc(cc3C1)[C@@H]2[C@H](C)C(=O)O [Compound 179] | 208 nM | 235 | 113 | 5.7 nM | 91.5 nM | – | – | – | –
Cc1nc2ccc1C(CC(=O)O)c1ccc3c(c1)CN(CC3)C(=O)c1c(F)cc(cc1F)OCCCCO2 (centres unmarked) [Compound 180] | 1000 nM | 1300 | 701 | 253 nM and 296 nM | 878 nM | – | – | – | –
